Data published in ChEMBL document CHEMBL1128637, “Enantioselective synthesis of inositols as intermediates for the preparation of deoxy-inositol phosphates from D-galactose” (Bioorg Med Chem Lett, 1995).

Target: T1, Type 1 InsP3 receptor isoform S2 (Sus scrofa, UniProt P79248)
Assay: Binding affinity of compound was determined by its ability to displace specifically bound […] from purified porcine cerebellum membrane; call rule not given here
Assay type: tissue-based

T1 sequence (P79248 whole entry, canonical isoform): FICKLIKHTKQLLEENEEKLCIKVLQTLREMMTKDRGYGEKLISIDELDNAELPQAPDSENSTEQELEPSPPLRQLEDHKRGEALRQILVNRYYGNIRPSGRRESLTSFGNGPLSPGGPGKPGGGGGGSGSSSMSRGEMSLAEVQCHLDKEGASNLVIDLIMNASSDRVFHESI

Compound | IC50 [nM]
O=P(O)(O)O[C@@H]1[C@H](O)[C@H](O)[C@@H](OP(=O)(O)O)[C@H](OP(=O)(O)O)[C@H]1O [INS(1,4,5)P3] | 20
O=P(O)(O)OC1CC(OP(=O)(O)O)C(OP(=O)(O)O)C(O)C1O (stereo not drawn) | 1500

Target: T1, Type 1 InsP3 receptor isoform S2
Assay: Binding affinity was determined by its ability to displace specifically bound […] from purified porcine cerebellum membrane.
Assay type: tissue-based

Compound | IC50
OC1CC(O)C2OC3(CCCCC3)OC2C1OCc1ccccc1 (stereo not drawn) | Not Active
CO[C@@H]1O[C@@H](CO)[C@@H]2OC3(CCCCC3)O[C@@H]2[C@@H]1O | Not Active
O=C1CC(O)C(OCc2ccccc2)C2OC3(CCCCC3)OC12 (stereo not drawn) | Not Active
OC1CC(O)C2OC3(CCCCC3)OC2C1O (stereo not drawn) | Not Active
C=C1OC(OC)C(OCc2ccccc2)C2OC3(CCCCC3)OC12 (stereo not drawn) | Not Active
COC1OC(CBr)C2OC3(CCCCC3)OC2C1OCc1ccccc1 (stereo not drawn) | Not Active
CO[C@@H]1O[C@H](CO)[C@H](O)[C@H](O)[C@H]1O | Not Active
O=P(OCc1ccccc1)(OCc1ccccc1)OC1CC(OP(=O)(OCc2ccccc2)OCc2ccccc2)C2OC3(CCCCC3)OC2C1OCc1ccccc1 (stereo not drawn) | Not Active
O[C@H]1[C@@H](O)[C@H](O)C[C@@H](O)[C@H]1O | Not Active
O=P(OCc1ccccc1)(OCc1ccccc1)OC1CC(OP(=O)(OCc2ccccc2)OCc2ccccc2)C(OP(=O)(OCc2ccccc2)OCc2ccccc2)C2OC3(CCCCC3)OC12 (stereo not drawn) | Not Active
COC1OC(CBr)C2OC3(CCCCC3)OC2C1O (stereo not drawn) | Not Active
